# Reference: PMC9225715, “Development of PD3 and PD3-B for PDEδ inhibition to modulate KRAS activity” (Journal of Enzyme Inhibition and Medicinal Chemistry, 2022)
# Target: T1, PDEδ (Homo sapiens, UniProt O43924)
# T1 construct: made in house; host or cells: E. coli BL21(DE3)
# Test: Native gel electrophoresis with in-gel fluorescence (target specificity)
# Assay type: binding
# Details: 5 or 50 µM PD3, PDEδ-overexpressing bacterial lysate or purified PDEδ, 12% native gel
# Procedure: We also conducted native gel electrophoresis to further verify the specific binding of PD3 to native PDEδ using in-gel fluorescence scanning. […] We assumed that PD3 bound within the tertiary structure would be identified on the native gel. PD3 was incubated with bacterial lysate containing the overexpressed PDEδ protein (Figure 4(C,D), lanes 1–3) or purified PDEδ (Figure 4(C,D), lanes 4–6), and then these samples were run in a native gel to avoid denaturation of the protein. The in-gel fluorescence shown in Figure 4(C) (Ex: 312 nm, Em: 585–625 nm) was compared to the same gel stained with Coomassie that visualised the protein bands (Figure 4(D)), which confirmed the formation of the PD3-target protein complex. As expected, the fluorescence band was detected at the location of PDEδ and only detected in the lane with PD3 (lanes 2, 3, 5, and 6).
# PD3 (5 or 50 µM) was added to the bacterial lysate (390 µM) or purified PDEδ protein (22.9 µM) and the mixture was incubated for 2 h at 4 °C. The samples were loaded on each lane and separated by 12% native PAGE in a running buffer [25 mM Tris-HCl (pH 8.0), 500 mM NaCl, 10 mM imidazole, 10% Glycerol] with 1/4 pellet of protease inhibitor (Roche, Penzberg, Upper Bavaria, Germany). The gels were run at 70 V for 2.5 h, followed by in-gel fluorescence measurement. The same gel was stained by Coomassie brilliant blue to visualise protein bands.
# T1 sequence (O43924 whole entry): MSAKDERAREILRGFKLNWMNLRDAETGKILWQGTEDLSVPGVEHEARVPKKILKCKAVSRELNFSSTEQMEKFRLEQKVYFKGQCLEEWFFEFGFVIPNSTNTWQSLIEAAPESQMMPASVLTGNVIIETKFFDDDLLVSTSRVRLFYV
compound,measurement,value
"Cc1ccc(-c2nc3ccccc3c3cc4ccccn4c23)cc1 [PD3, 6-(p-tolyl)indolizino[3,2-c]quinoline]",Binding specificity to PDEδ by in-gel fluorescence,specifically binds to PDEδ in bacterial lysates
